pEC50: −log10 of the molar value.
Molecular target: RIPK1 (recombinant GST-RIPK1 kinase domain, residues 1-327) (Homo sapiens (Human), UniProt Q13546)
Test: RIPK1-ADP-Glo Enzymatic Assay
Assay type: biochemical
Conditions: ADP-Glo; 25 nM GST-RIPK1, 300 μM ATP; assay lower limit ~25 nM; read-out: RIPK1 V0 Ec50
In short: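 Luminescent ADP-Glo readout of ATP-to-ADP conversion. Conditions: 25 nM enzyme, 300 μM ATP, 3 μM dephospho-MBP, pH 7.3 HEPES buffer with 20 mM MgCl2; 30 min compound pre-incubation, 150 min reaction. EC50 via four-parameter sigmoidal regression; assay floor ~25 nM.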

Chain of RIPK1 (recombinant GST-RIPK1 kinase domain, residues 1-327) (Q13546 1-327): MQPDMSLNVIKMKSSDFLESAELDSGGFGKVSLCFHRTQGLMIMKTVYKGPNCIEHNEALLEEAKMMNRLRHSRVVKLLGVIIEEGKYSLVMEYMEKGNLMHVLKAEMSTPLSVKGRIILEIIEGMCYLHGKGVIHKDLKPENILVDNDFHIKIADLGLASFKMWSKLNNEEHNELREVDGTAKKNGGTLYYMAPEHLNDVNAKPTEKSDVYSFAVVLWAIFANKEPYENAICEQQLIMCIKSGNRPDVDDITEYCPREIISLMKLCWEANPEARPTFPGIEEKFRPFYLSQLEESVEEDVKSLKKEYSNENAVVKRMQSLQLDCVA

SMILES	pEC50
N#Cc1cc(N2CCC3(O[C@@H]4CC[C@@H](c5ccccc5)N4C3=O)C(F)C2)ncn1 (single isomer, unassigned) [Example 4.94, 6-((3[R or S],4[S or R], 5′S,7a′R)-3-fluoro-3′-oxo-5′-phenyltetrahydro-3′H-spiro[piperidine-4,2′-pyrrolo[2,1-b]oxazol]-1-yl)pyrimidine-4-carbonitrile]	6.81
CC1CN(c2ncnc3ccnn23)CCC12O[C@@H]1CC[C@@H](c3cc(F)cc(F)c3)N1C2=O (stereo partly drawn) [Example 4.264, (5′S,7a′R)-5′-(3,5-difluorophenyl)-3-methyl-1-(pyrazolo[1,5-a] [1,3,5]triazin-4-yl)tetrahydro-3′H-spiro[piperidine-4,2′-pyrrolo[2,1-b] [1,3]oxazol]-3′-one]	> 7.60
CC1CN(c2ccnc3ccnn23)CCC12O[C@@H]1CC[C@@H](c3ccccc3)N1C2=O (stereo partly drawn) [Example 4.246, (4R,5′S,7a′R)-3-methyl-5′-phenyl-1-(pyrazolo[1,5-a]pyrimidin-7-yl)tetrahydro-3′H-spiro[piperidine-4,2′-pyrrolo[2,1-b] [1,3]oxazol]-3′-one]	> 7.60
O=C(c1cccc(O)c1)N1CCC2(CC1)O[C@@H]1CC[C@@H](c3cc(F)cc(F)c3)N1C2=O [Example 5.63, (5′S,7a′R)-5′-(3,5-difluoro-phenyl)-1-(3-hydroxy-benzoyl)tetrahydro-3′H-spiro[piperidine-4,2′-pyrrolo[2,1-b]oxazol]-3′-one]	> 7.60
N#Cc1ccccc1C(=O)N1CCC2(CC1)O[C@@H]1CC[C@@H](c3cc(F)cc(F)c3)N1C2=O [Example 5.13, 2-((5′S,7a′R)-5′-(3,5-difluorophenyl)-3′-oxo-tetrahydro-3′H-spiro [piperidine-4,2′-pyrrolo-[2,1-b]oxazole]-1-carbon-yl)benzonitrile]	6.56
O=C(c1ccccc1)N1CC2(C1)O[C@@H]1CC[C@@H](c3ccccc3F)N1C2=O [Example 1.19, (5′S,7a′R)-1-benzoyl-5′-(2-fluorophenyl)tetrahydro-3′H-spiro[azetidine-3,2′-pyrrolo[2,1-b]oxazol]-3′-one]	7.08
N#Cc1cc(N2CCC3(CC2)O[C@@H]2CC[C@@H](c4ccccc4F)N2C3=O)ncn1 [Example 4.104, 6-((5′S,7a′R)-5′-(2-fluorophenyl)-3′-oxotetrahydro-3′H-spiro[piperidine-4,2′-pyrrolo[2,1-b]oxazol]-1-yl)pyrimidine-4-carbonitrile]	7.47
O=C1N2[C@@H](CC[C@H]2c2ccccc2)OC12CCN(c1nc3cnccc3o1)CC2 [Example 4.159, (5′S,7a′R)-1-([1,3]oxazolo[4,5-c]pyridin-2-yl)-5′-phenyltetrahydro-3′H-spiro[piperidine-4,2′-pyrrolo[2,1-b] [1,3]oxazol]-3′-one]	7.20
O=C1CCc2c1cccc2C(=O)N1CCC2(CC1)O[C@@H]1CC[C@@H](c3cc(F)cc(F)c3)N1C2=O [Example 5.28, (5′S,7a′R)-5′-(3,5-difluoro-phenyl)-1-(1-oxo-2,3-dihydro-1H-indene-4-carbonyl)tetrahydro-3′H-spiro[piperidine-4,2′-pyrrolo[2,1-b]oxazol]-3′-one]	6.68
O=C(c1ccc(N2CCC3(CC2)O[C@@H]2CC[C@@H](c4ccccc4)N2C3=O)nc1)C(F)F [Example 4.161, (5′S,7a′R)-1-[5-(difluoroacetyl)pyridin-2-yl]-5′-phenyltetrahydro-3′H-spiro[piperidine-4,2′-pyrrolo[2,1-b] [1,3]oxazol]-3′-one]	> 7.60
O=C(c1ccon1)N1CCC2(CC1)O[C@@H]1CC[C@@H](c3cc(F)cc(F)c3)N1C2=O [Example 5.45]	7.51
Cn1ccc(C(=O)N2CCC3(CC2)O[C@@H]2CC[C@@H](c4cc(F)cc(F)c4)N2C3=O)c1 [Example 5.47, (5′S,7a′R)-5′-(3,5-difluoro-phenyl)-1-(1-methyl-1H-pyrrole-3-carbonyl)tetra-hydro-3′H-spiro[piperidine-4,2′-pyrrolo[2,1-b]oxazol]-3′-one]	7.57

Next, values leading:

pEC50	SMILES
> 7.60	N#Cc1cccc(C(=O)N2CCC3(CC2)O[C@@H]2CC[C@@H](c4ccccc4)N2C3=O)c1 [Example 6.153, 3-[(5′S,7a′R)-3′-oxo-5′-phenyltetrahydro-1H,3′H-spiro[piperi-dine-4,2′-pyrrolo[2,1-b][1,3]oxazole]-1-carbonyl]benzonitrile]
7.02	O=C(c1nc2ccncc2s1)N1CCC2(CC1)O[C@@H]1CC[C@@H](c3cc(F)cc(F)c3)N1C2=O [Example 6.23, (5′S,7a′R)-5′-(3,5-difluorophenyl)-1-([1,3]thiazolo[5,4-c]-pyridine-2-carbonyl) tetrahydro-3′H-spiro [piperidine-4,2′-pyrrolo[2,1-b][1,3]oxazol]-3′-one]
> 7.60	COc1cccc(C(=O)N2CCC3(CC2)O[C@@H]2CC[C@@H](c4cc(F)cc(F)c4)N2C3=O)c1 [Example 6.10, (5′S,7a′R)-5′-(3,5-difluorophenyl)-1-(3-methoxybenzene-1-carbonyl)tetrahydro-3′H-spiro[piperidine-4,2′-pyrrolo[2,1-b] [1,3]oxazol]-3′-one]
7.32	O=C(c1cccc2ccnn12)N1CCC2(CC1)O[C@@H]1CC[C@@H](c3cc(F)cc(F)c3)N1C2=O [Example 6.27, (5′S,7a′R)-5′-(3,5-difluorophenyl)-1-(pyrazolo[1,5-a]pyridine-7-carbonyl) tetrahydro-3′H-spiro [piperidine-4,2′-pyrrolo[2,1-b][1,3]oxazol]-3′-one]
6.88	COc1cncc(C(=O)N2CCC3(CC2)O[C@@H]2CC[C@@H](c4cc(F)cc(F)c4)N2C3=O)n1 [Example 6.41, (5′S,7a′R)-5′-(3,5-difluorophenyl)-1-(6-methoxypyrazine-2-carbonyl)tetrahydro-3′H-spiro[piperidine-4,2′-pyrrolo[2,1-b] [1,3]-oxazol]-3′-one]
7.17	O=C1N2[C@@H](CC[C@H]2c2ccccc2)OC12CCN(c1ccn(-c3cnccn3)n1)CC2 [Example 11.5, (5′S,7a′R)-5′-phenyl-1-[1-(pyrazin-2-yl)-1H-pyrazol-3-yl]tetrahydro-3′H-spiro[piperidine-4,2′-pyrrolo[2,1-b][1,3]oxazol]-3′-one]
7.52	O=C(c1ccc(F)cn1)N1CCC2(CC1)O[C@@H]1CC[C@@H](c3cc(F)cc(F)c3)N1C2=O [Example 6.14, (5′S,7a′R)-5′-(3,5-difluorophenyl)-1-(5-fluoropyridine-2-carbonyl)tetrahydro-3′H-spiro[piperidine-4,2′-pyrrolo[2,1-b] [1,3]oxazol]-3′-one]
> 7.60	Cc1ccc([C@@H]2CC[C@H]3OC4(CCN(C(=O)c5ccccc5)CC4)C(=O)N32)cc1 [Example 17.3, (5′S,7a′R)-1-benzoyl-5′-(p-tolyl)tetrahydro-3′H-spiro[piperidine-4,2′-pyrrolo[2,1-b]oxazol]-3′-one]
7.50	CCOc1cccc(C(=O)N2CCC3(CC2)O[C@@H]2CC[C@@H](c4cc(F)cc(F)c4)N2C3=O)n1 [Example 6.83, (5′S,7a′R)-5′-(3,5-difluorophenyl)-1-(6-ethoxypyridine-2-carbonyl)tetrahydro-3′H-spiro[piperidine-4,2′-pyrrolo[2,1-b] [1,3]oxazol]-3′-one]
6.50	Cc1nc(N2CCC3(CC2)O[C@@H]2CC[C@@H](c4ccccc4)N2C3=O)sc1C [Example 11.32, (5′S,7a′R)-1-(4,5-dimethyl-1,3-thiazol-2-yl)-5′-phenyltetrahydro-3′H-spiro[piperidine-4,2′-pyrrolo[2,1-b][1,3]oxazol]-3′-one]
> 7.60	O=C1N2[C@@H](CC[C@H]2c2ccccc2F)OC12CCN(c1ccnc(-c3cnn(C(F)F)c3)c1)CC2 [Example 10.4, (5′S,7a′R)-1-{2-[1-(difluoromethyl)-1H-pyrazol-4-yl]pyridin-4-yl}-5′-(2-fluorophenyl)tetrahydro-3′H-spiro[piperidine-4,2′-pyrrolo[2,1-b][1,3]oxazol]-3′-one]
> 7.60	Cc1cccc(C(=O)N2CCC3(CC2)O[C@@H]2CC[C@@H](c4cccc(F)c4)N2C3=O)c1F [Example 6.119, (5′S,7a′R)-1-(2-fluoro-3-methylbenzene-1-carbonyl)-5′-(3-fluoro-phenyl)tetrahydro-3′H-spiro[piperidine-4,2′-pyrrolo[2,1-b][1,3]oxazol]-3′-one]
7.61	O=C(c1ccc2c(c1)CCO2)N1CCC2(CC1)O[C@@H]1CC[C@@H](c3cc(F)cc(F)c3)N1C2=O [Example 6.75, (5′S,7a′R)-5′-(3,5-difluorophenyl)-1-(2,3-dihydro-1-benzo-furan-5-carbonyl)-tetrahydro-3′H-spiro [piperidine-4,2′-pyrrolo[2,1-b][1,3]-oxazol]-3′-one]
> 7.60	O=C(c1cccc(-c2ccccc2)n1)N1CCC2(CC1)O[C@@H]1CC[C@@H](c3cc(F)cc(F)c3)N1C2=O [Example 6.97, (5′S,7a′R)-5′-(3,5-difluorophenyl)-1-(6-phenylpyridine-2-carbonyl)tetrahydro-3′H-spiro[piperidine-4,2′-pyrrolo[2,1-b] [1,3]oxazol]-3′-one]
7.22	O=C(c1coc(Cl)n1)N1CCC2(CC1)O[C@@H]1CC[C@@H](c3cccc(F)c3)N1C2=O [Example 6.127, (5′S,7a′R)-1-(2-chloro-1,3-oxazole-4-carbon-yl)-5′-(3-fluorophenyl)-tetrahydro-3′H-spiro [piperidine-4,2′-pyrrolo[2,1-b][1,3]oxazol]-3′-one]
7.31	Cc1ccnc(C(=O)N2CCC3(CC2)O[C@@H]2CC[C@@H](c4cc(F)cc(F)c4)N2C3=O)c1 [Example 6.102, (5′S,7a′R)-5′-(3,5-difluorophenyl)-1-(4-methylpyridine-2-carbonyl)tetrahydro-3′H-spiro[piperidine-4,2′-pyrrolo[2,1-b] [1,3]oxazol]-3′-one]
